Results as given in paper PMC2954893, “MHC Class I Bound to an Immunodominant Theileria parva Epitope Demonstrates Unconventional Presentation to T Cell Receptors” (PLoS Pathogens, 2010).

Assays:
N*01301 = experiment: RMA-S MHC stabilization assay (peptide binding, pBL50); parameters: species or system cattle; conditions: RMA-S cells transfected with N*01301; peptides 0.1 nM to 1 mM; surface N*01301 detected with mAb IL-A88 by flow; reference peptide TIMPKDIQL
Experimental: A 9mer self-peptide (TIMPKDIQL) shown to have a high binding affinity to N*01301 was used throughout as a positive control in flow-based MHC stabilization assays (see Materials and Methods for details). In order to systematically explore the relative contribution to binding affinity made by amino acids at each position, a sequential alanine-scan of the self-peptide was made (Fig. 1A). Dose/FI curves were created for each peptide (using peptides at concentrations between 0.1 nM and 1 mM) and presented as semi-logarithmic plots as in previous studies ([25], supporting information (SI) Fig. S1). The high binders have low half-maximal binding level (BL50) values (high pBL50) and the low binders have high BL50 values (low pBL50). […]
RMA-S is a mouse lymphoma cell line with a deficiency in MHC class I antigen processing which has been used extensively to study binding of peptides to MHC class I [37]. […] Results are expressed as fluorescence index (FI) values. These were calculated as the test mean fluorescence intensity (MFI) minus the no-peptide isotype control MFI divided by the no-peptide N*01301-stained control MFI minus the no-peptide isotype control MFI. The half-maximal binding level (BL50), which is the peptide concentration yielding the half-maximal FI of the reference peptide in each assay, was calculated and presented as pBL50 (–logBL50). […]

[1] = system: Tp1_214–224-specific CD8+ T cell clones; experiment: 4-hour 111Indium release cytotoxicity assay with peptide-pulsed target cells; assay type: cell-based, cattle; conditions: 22 CD8+ T cell clones; example in Fig S6
Text: Twenty-two Tp1_214–224-specific CD8^+ T cell clones, derived from 2 T. parva-immune animals (641 and 633), were examined for their ability to recognize a series of Ala-substituted versions of Tp1_214–224 (as detailed in Fig 1), using a cytotoxicity assay. All clones gave near maximal levels of killing of cells pulsed with the native peptide (ranging from 21% to 100% for different clones) down to a concentration of 10 pg/ml (example shown in Fig S6). The results obtained with the Ala-substituted peptides tested at 1 ng/ml (i.e. well above the minimal concentration required to obtain maximal killing), are summarized in Fig 5. The most striking finding was the abolition (or near abolition) of recognition by all T cell clones of 2 or more of the peptides substituted at positions 6–9. Based on major effects on recognition of peptides substituted at positions 6, 7 and 8, the 22 clones fell into 4 groups each with broadly similar specificity. Nine clones were profoundly influenced by residues 6 and 8, seven clones by residues 7 and 8, four clones by residue 7 and two clones by residue 8. […] Substitutions at positions 3 and 4 also had substantial effects on recognition by some clones.
Figure 5 Effects of single alanine substitutions in the Tp1_214–224 epitope on recognition by specific CD8^+ T cell clones. […]

responding T cells = conditions: T. parva-immune A18-homozygous animals; cited from earlier work
Text: Several CD8^+ T cell epitopes in T. parva have been identified recently, [17], [18]. […] This allele is expressed alone on the haplotype designated A18, which is common in the British Friesian breed. Although this is not the only single gene class I MHC haplotype in cattle, it remains an unu ...

Sequence	binding to N*01301 (pBL50 class) (N*01301)	peptide concentration down to which all clones gave near maximal killing [1]	share of responding T cells specific for the peptide (responding T cells)
TIMPKDIQL	high (for high binding >5 (BL50 <10^−5))		
VGYPKVKEEML [Tp1_214–224]		10 pg/mL	over 75%
